In PubChem BioAssay (NCI):
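In this assay, cells in 96-well plates receive the compound at five concentrations for 48 hours. Endpoints are linearly interpolated between the surrounding concentrations. The concentration for full growth arrest is given as TGI.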

Assays:
Test in all cases: NCI-60 cell line screen, 48 h
K-562 leukemia = test system: K-562 leukemia
HS 578T breast = test system: HS 578T breast
HCT-15 colon = test system: HCT-15 colon
MDA-MB-435 = test system: MDA-MB-435
MDA-N = test system: MDA-N
HOP-62 NSCLC = test system: HOP-62 NSCLC
SNB-19 CNS = test system: SNB-19 CNS
U251 CNS = test system: U251 CNS
OVCAR-5 ovarian = test system: OVCAR-5 ovarian
CAKI-1 renal = test system: CAKI-1 renal
SF-539 CNS = test system: SF-539 CNS
UO-31 renal = test system: UO-31 renal
HCT-116 colon = test system: HCT-116 colon
SK-MEL-5 melanoma = test system: SK-MEL-5 melanoma
COLO 205 colon = test system: COLO 205 colon
DU-145 prostate = test system: DU-145 prostate
LOX IMVI melanoma = test system: LOX IMVI melanoma
HCC-2998 colon = test system: HCC-2998 colon
SR leukemia = test system: SR leukemia
HT29 colon = test system: HT29 colon
ACHN renal = test system: ACHN renal
PC-3 prostate = test system: PC-3 prostate
SK-MEL-28 melanoma = test system: SK-MEL-28 melanoma
MALME-3M melanoma = test system: MALME-3M melanoma
SN12C renal = test system: SN12C renal
NCI-H460 lung = test system: NCI-H460 lung
NCI-H226 lung = test system: NCI-H226 lung
SW-620 colon = test system: SW-620 colon
T-47D breast = test system: T-47D breast
HL-60(TB) leukemia = test system: HL-60(TB) leukemia
NCI/ADR-RES ovarian = test system: NCI/ADR-RES ovarian
786-0 renal = test system: 786-0 renal
A498 renal = test system: A498 renal
BT-549 breast = test system: BT-549 breast
MOLT-4 leukemia = test system: MOLT-4 leukemia
OVCAR-4 ovarian = test system: OVCAR-4 ovarian
RPMI-8226 leukemia = test system: RPMI-8226 leukemia
MCF7 breast = test system: MCF7 breast
HOP-92 NSCLC = test system: HOP-92 NSCLC
CCRF-CEM leukemia = test system: CCRF-CEM leukemia
UACC-62 melanoma = test system: UACC-62 melanoma
UACC-257 melanoma = test system: UACC-257 melanoma
KM12 colon = test system: KM12 colon
SK-MEL-2 melanoma = test system: SK-MEL-2 melanoma
NCI-H522 lung = test system: NCI-H522 lung
M14 melanoma = test system: M14 melanoma
TK-10 renal = test system: TK-10 renal
NCI-H23 lung = test system: NCI-H23 lung
IGROV1 ovarian = test system: IGROV1 ovarian
EKVX NSCLC = test system: EKVX NSCLC
SF-268 CNS = test system: SF-268 CNS
OVCAR-3 ovarian = test system: OVCAR-3 ovarian
RXF 393 renal = test system: RXF 393 renal
A549 NSCLC = test system: A549 NSCLC
SF-295 CNS = test system: SF-295 CNS
SK-OV-3 ovarian = test system: SK-OV-3 ovarian
MDA-MB-231 breast = test system: MDA-MB-231 breast
SNB-75 CNS = test system: SNB-75 CNS
OVCAR-8 ovarian = test system: OVCAR-8 ovarian

## CCOC(=O)/C=C/C1=C(Br)[C@@]2(C)CC[C@@H]3c4ccc(O)cc4CC[C@H]3[C@@H]2C1
K-562 leukemia
  TGI: 24.9 µM
HS 578T breast
  TGI: 28.9 µM
HCT-15 colon
  TGI: 24.4 µM
MDA-MB-435
  TGI: 28.8 µM
MDA-N
  TGI: 26.7 µM
HOP-62 NSCLC
  TGI: 27.5 µM
SNB-19 CNS
  TGI: 30.2 µM
U251 CNS
  TGI: 30.3 µM
OVCAR-5 ovarian
  TGI: 28.5 µM
CAKI-1 renal
  TGI: 30 µM
SF-539 CNS
  TGI: 30.7 µM
UO-31 renal
  TGI: 30.4 µM
HCT-116 colon
  TGI: 26.6 µM
SK-MEL-5 melanoma
  TGI: 26.8 µM
COLO 205 colon
  TGI: 32.2 µM
DU-145 prostate
  TGI: 19.1 µM
LOX IMVI melanoma
  TGI: 19.6 µM
HCC-2998 colon
  TGI: 28.8 µM
SR leukemia
  TGI: 18.5 µM
HT29 colon
  TGI: 27.8 µM
ACHN renal
  TGI: 29.1 µM
PC-3 prostate
  TGI: 28.5 µM
SK-MEL-28 melanoma
  TGI: 30 µM
MALME-3M melanoma
  TGI: 24.3 µM
SN12C renal
  TGI: 26.5 µM
NCI-H460 lung
  TGI: 28.4 µM
NCI-H226 lung
  TGI: 30.2 µM
SW-620 colon
  TGI: 37.3 µM
T-47D breast
  TGI: 16.5 µM
HL-60(TB) leukemia
  TGI: 34 µM
NCI/ADR-RES ovarian
  TGI: 27.9 µM
786-0 renal
  TGI: 25.4 µM
A498 renal
  TGI: 32 µM
BT-549 breast
  TGI: 27.3 µM
MOLT-4 leukemia
  TGI: 43.2 µM
OVCAR-4 ovarian
  TGI: 27.7 µM
RPMI-8226 leukemia
  TGI: 6.6 µM
MCF7 breast
  TGI: 26.7 µM
HOP-92 NSCLC
  TGI: 23.8 µM
CCRF-CEM leukemia
  TGI: 32.3 µM
UACC-62 melanoma
  TGI: 19.4 µM
UACC-257 melanoma
  TGI: 26.8 µM
KM12 colon
  TGI: 29.7 µM
SK-MEL-2 melanoma
  TGI: 28.1 µM
NCI-H522 lung
  TGI: 14.2 µM
M14 melanoma
  TGI: 23.9 µM
TK-10 renal
  TGI: 31.7 µM
NCI-H23 lung
  TGI: 26.6 µM
IGROV1 ovarian
  TGI: 24.7 µM
EKVX NSCLC
  TGI: 30.7 µM
SF-268 CNS
  TGI: 33 µM
OVCAR-3 ovarian
  TGI: 20.5 µM
RXF 393 renal
  TGI: 29.5 µM
A549 NSCLC
  TGI: 30.5 µM
SF-295 CNS
  TGI: 29.2 µM
SK-OV-3 ovarian
  TGI: 28.7 µM

## Cc1ccc([N+](=O)[O-])cc1S(=O)(=O)Nc1ccc(C2=NN(C(=O)c3ccccc3)C(c3ccccc3O)C2)cc1 (configuration not stated)
K-562 leukemia
  TGI: > 100 µM
HS 578T breast
  TGI: > 100 µM
HCT-15 colon
  TGI: 33.5 µM
MDA-MB-435
  TGI: > 100 µM
MDA-N
  TGI: 88.1 µM
HOP-62 NSCLC
  TGI: 85.7 µM
SNB-19 CNS
  TGI: > 100 µM
MDA-MB-231 breast
  TGI: 37.7 µM
U251 CNS
  TGI: 80.1 µM
OVCAR-5 ovarian
  TGI: 60.6 µM
CAKI-1 renal
  TGI: 91.9 µM
SF-539 CNS
  TGI: 38.4 µM
UO-31 renal
  TGI: 76.6 µM
HCT-116 colon
  TGI: 28.4 µM
SK-MEL-5 melanoma
  TGI: 34.7 µM
COLO 205 colon
  TGI: 31.9 µM
DU-145 prostate
  TGI: 41.5 µM
LOX IMVI melanoma
  TGI: 45.6 µM
SR leukemia
  TGI: > 100 µM
HT29 colon
  TGI: 62.5 µM
ACHN renal
  TGI: 47.8 µM
PC-3 prostate
  TGI: 29 µM
SK-MEL-28 melanoma
  TGI: > 100 µM
MALME-3M melanoma
  TGI: 31.5 µM
SN12C renal
  TGI: 33 µM
NCI-H226 lung
  TGI: 58.6 µM
SW-620 colon
  TGI: > 100 µM
T-47D breast
  TGI: 30.1 µM
HL-60(TB) leukemia
  TGI: 69.4 µM
NCI/ADR-RES ovarian
  TGI: > 100 µM
786-0 renal
  TGI: 27.9 µM
A498 renal
  TGI: 60.6 µM
BT-549 breast
  TGI: 30.7 µM
MOLT-4 leukemia
  TGI: 51.5 µM
OVCAR-4 ovarian
  TGI: 42.8 µM
RPMI-8226 leukemia
  TGI: > 100 µM
MCF7 breast
  TGI: 26.7 µM
HOP-92 NSCLC
  TGI: 26.4 µM
CCRF-CEM leukemia
  TGI: > 100 µM
UACC-257 melanoma
  TGI: 51.8 µM
SNB-75 CNS
  TGI: 41.4 µM
KM12 colon
  TGI: > 100 µM
SK-MEL-2 melanoma
  TGI: 46.4 µM
NCI-H522 lung
  TGI: 28.6 µM
M14 melanoma
  TGI: 48.6 µM
TK-10 renal
  TGI: 28.5 µM
NCI-H23 lung
  TGI: 35.5 µM
IGROV1 ovarian
  TGI: 25.4 µM
EKVX NSCLC
  TGI: 31 µM
SF-268 CNS
  TGI: 45.9 µM
OVCAR-3 ovarian
  TGI: 56.8 µM
OVCAR-8 ovarian
  TGI: 57.7 µM
RXF 393 renal
  TGI: 31.9 µM
A549 NSCLC
  TGI: 74.4 µM
SF-295 CNS
  TGI: > 100 µM
SK-OV-3 ovarian
  TGI: 84.5 µM
